Measurements published in paper PMC7068051, “Thermal stability, ligand binding and allergenicity data of Mus m 1.0102 allergen and its cysteine mutants” (Data in Brief, 2020).
Changes are numbered by the printed parent chain.

Tests used:
Test in all cases: direct fluorescence titration (ex […] nm, em […] nm), nonlinear regression
Assay type in all cases: binding
Mus m 1.0102 [1] = molecular target: T1, Mus m 1.0102 (Mus musculus, UniProt P11589, C175A)
T1 construct: gene Mup2; recombinant lipocalin allergen
T1 sequence (P11589 19-180 C175A): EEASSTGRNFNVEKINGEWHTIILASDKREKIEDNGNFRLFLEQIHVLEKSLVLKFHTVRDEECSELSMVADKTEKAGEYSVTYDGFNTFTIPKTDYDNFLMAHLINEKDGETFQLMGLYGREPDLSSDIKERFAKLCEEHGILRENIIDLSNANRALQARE

Mus m 1.0102 [2] = molecular target: T2, Mus m 1.0102 (Mus musculus, UniProt P11589); conditions: 20 nM protein, Tris-HCl 10 mM pH 7.2, 25 °C; hydrophobic pocket
T2 construct: gene Mup2; recombinant lipocalin allergen
T2 sequence (P11589 19-180): T1 sequence (P11589 19-180 C175A) with A157C

Mus m 1.0102 [3] = molecular target: T3, Mus m 1.0102 (Mus musculus, UniProt P11589, C156A); conditions: 20 nM protein, Tris-HCl 10 mM pH 7.2, 25 °C; hydrophobic pocket
T3 construct: gene Mup2; recombinant lipocalin allergen
T3 sequence (P11589 19-180 C156A): T1 sequence (P11589 19-180 C175A) with C138A, A157C

Mus m 1.0102 [4] = molecular target: T4, Mus m 1.0102 (Mus musculus, UniProt P11589, C156A/C175A); conditions: 20 nM protein, Tris-HCl 10 mM pH 7.2, 25 °C; hydrophobic pocket
T4 construct: gene Mup2; recombinant lipocalin allergen
T4 sequence (P11589 19-180 C156A/C175A): T1 sequence (P11589 19-180 C175A) with C138A

## c1ccc(Nc2cccc3ccccc23)cc1 [N-Phenyl-1-naphthylamine]
Mus m 1.0102 [1]
  Kd: 85.5 ± 13.7 nM
Mus m 1.0102 [2]
  Kd: 25 ± 1.5 nM
Mus m 1.0102 [3]
  Kd: 33.8 ± 6.4 nM
Mus m 1.0102 [4]
  Kd: 45.2 ± 4 nM
